Test results as given in patent US20080138393A1, “Water soluble extract of spinach for prevention and repair of DNA damage” (Access to Business Group International LLC, priority 2006, published 2008).

Tests used:
[1] = Oxygen radical absorbency capacity (ORAC)
[2] = test system: THP-1 monocytes; test: Protection from oxidative stress, MitoSOX Red mitochondrial superoxide indicator, flow cytometry; format: cell-based; details: 3 hours treatment, then H2O2 challenge 3 hours, sample 100 ug/ml final, positive control 100 uM, 0% = challenged negative control, 100% = unchallenged normal control
Source text: The assay described in this experiment measures oxidative stress occurring within the mitochondria. As discussed above, the biochemical reactions used by mitochondria to generate energy yielding ATP molecules also produce highly oxidizing superoxide free radical as a by-product. Using flow cytometry, the below example measures the protection various test samples provide from oxidative stress by monitoring the status of superoxide within mitochondria following treatment with the test materials.
MitoSOX Red mitochondrial superoxide indicator (Invitrogen cat#M36008) is a fluorescent dye that is selectively taken up by mitochondria. Once in the mitochondria, MitoSOX reacts with superoxide free radical to form a fluorescent product (excitation/emission maxima=510/580 nm) that binds to mitochondrial nucleic acids. A higher fluorescence reading corresponds to a higher level of superoxide free radical being present within the mitochondria.
Cell Culture: One 6 well plate is used per sample. Multiple plates may be prepared simultaneously. Refer to Table I for a plate description. THP-1 monocytes (ATCC cat# TIB-202) are plated at 1.5×10^6 cells/well in 6 well plates (contained in 2 ml/well RMPI 1640 media supplemented with 10% FBS) and incubated for 1 hour before treating.
Treatment: Glutathione monoethylester (GMEE, 100 uM final concentration) is used as a positive control. […]

COC(=O)c1cc(O)ccc1O [Methylgentisate, methylgentisate]
oxygen radical absorbency capacity (ORAC) [1]: 25,605 μmol Teq/g

CCOC(=O)CNC(=O)[C@H](CS)NC(=O)CC[C@H](N)C(=O)O [glutathione methyl ester]
protection from oxidative stress [2]: 35%
